Where two headings read alike, the source gives them in different places.
How the values were obtained:
[1] = test system: Jurkat NFκB-luciferase cells; assay: Jurkat NFκB-Luciferase Assay; assay type: cell-based; conditions: Homo sapiens; Jurkat NFκB-luciferase cells activated with anti-CD3 antibody (OKT3), 2.5 hrs at 37° C.; geometric mean; read-out: DGK NFKb Luciferase EC50
Method in brief: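 Jurkat NFκB-luciferase reporter cells at 1 million cells/ml in RPMI with 10% FBS were added to antibody-coated, compound-containing wells. Luciferase activity read by One-Glo Ex luminescence 7 minutes after reagent addition.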

human DGKα = human DGKα (Homo sapiens, UniProt P23743); assay: DGKα Biochemical Activity Assay (ADP-Glo);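 further: luminescent detection of ADP produced as DGKα phosphorylates DAG to phosphatidic acid, IC50 from four-parameter nonlinear curve fit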
Sequence of human DGKα (P23743 whole entry): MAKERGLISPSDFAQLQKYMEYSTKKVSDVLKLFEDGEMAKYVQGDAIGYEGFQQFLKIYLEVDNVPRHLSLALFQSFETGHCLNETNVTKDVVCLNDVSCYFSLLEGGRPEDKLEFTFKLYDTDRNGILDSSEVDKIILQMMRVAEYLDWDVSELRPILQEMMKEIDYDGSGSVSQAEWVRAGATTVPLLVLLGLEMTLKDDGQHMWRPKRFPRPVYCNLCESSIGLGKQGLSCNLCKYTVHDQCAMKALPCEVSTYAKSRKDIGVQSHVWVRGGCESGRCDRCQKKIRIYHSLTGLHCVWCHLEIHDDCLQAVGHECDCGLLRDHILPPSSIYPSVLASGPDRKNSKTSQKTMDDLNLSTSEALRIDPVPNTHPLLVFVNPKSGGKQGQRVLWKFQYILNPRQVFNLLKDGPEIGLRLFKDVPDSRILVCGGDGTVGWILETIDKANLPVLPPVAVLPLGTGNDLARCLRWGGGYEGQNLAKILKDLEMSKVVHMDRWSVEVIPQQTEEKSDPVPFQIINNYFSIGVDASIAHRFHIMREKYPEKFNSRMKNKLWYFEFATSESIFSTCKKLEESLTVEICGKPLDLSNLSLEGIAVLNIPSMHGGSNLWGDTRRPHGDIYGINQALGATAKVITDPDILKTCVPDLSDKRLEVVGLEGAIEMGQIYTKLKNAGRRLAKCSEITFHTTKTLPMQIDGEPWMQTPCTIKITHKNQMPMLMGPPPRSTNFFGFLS

[2] = recombinant DGKα 1 nM, 100 μM ATP, 18:1 DAG/POPS/octylglucoside micelles, 1 hour at 25° C., geometric mean, read-out: HTBS DGKa 1X ATP KM IC50

| SMILES | EC50 [1] | IC50 (human DGKα; [2]) | IC50 (human DGKα) |
| --- | --- | --- | --- |
| CCC(C)(O)C#Cc1cc(F)cc(N(CC(F)F)c2nc3nnc(C)n3c3ccc(F)c(F)c23)c1 (centres unmarked) [Example 241, 1-[3-[2,2-difluoroethyl-(6,7-difluoro-1-methyl-[1,2,4]triazolo[4,3-a]quinazolin-5-yl)amino]-5-fluoro-phenyl]-3-methyl-pent-1-yn-3-ol] | 29.5 nM | 38.6 nM |  |
| CC(C)(C#N)C#Cc1cccc2c1CCCN2c1nc2nncn2c2ccc(F)c(F)c12 [Example 242, 4-[1-(6,7-difluoro-[1,2,4]triazolo[4,3-a]quinazolin-5-yl)-3,4-dihydro-2H-quinolin-5-yl]-2,2-dimethyl-but-3-ynenitrile] | 1.94 nM | 3.75 nM |  |
| CC(C)(C#N)C#Cc1cccc2c1CCCN2c1nc2nncn2c2cccc(F)c12 [Example 243, 4-[1-(6-fluoro-[1,2,4]triazolo[4,3-a]quinazolin-5-yl)-3,4-dihydro-2H-quinolin-5-yl]-2,2-dimethyl-but-3-ynenitrile] | 2.33 nM | 3.14 nM |  |
| Cc1nnc2nc(N3CCCc4c(C#CC(C)(C)C#N)cccc43)c3cc(F)ccc3n12 [Example 244, 4-[1-(7-fluoro-1-methyl-[1,2,4]triazolo[4,3-a]quinazolin-5-yl)-3,4-dihydro-2H-quinolin-5-yl]-2,2-dimethyl-but-3-ynenitrile] | 3.24 nM | 10.2 nM |  |
| Cc1nnc2nc(N(CC(F)F)c3cc(F)cc(C#CC(C)(C)C#N)c3)c3cc(F)ccc3n12 [Example 245, 4-[3-[2,2-difluoroethyl-(7-fluoro-1-methyl-[1,2,4]triazolo[4,3-a]quinazolin-5-yl)amino]-5-fluoro-phenyl]-2,2-dimethyl-but-3-ynenitrile] | 6.75 nM | 21.2 nM |  |
| Cc1nnc2nc(N3CCCc4c(C#CC5CCC5)cccc43)c3c(F)cccc3n12 [Example 246, 5-[5-(2-cyclobutylethynyl)-3,4-dihydro-2H-quinolin-1-yl]-6-fluoro-1-methyl-[1,2,4]triazolo[4,3-a]quinazoline] | 0.272 nM | 39.3 nM |  |
| Cc1nnc2nc(N3CCN(C)Cc4c(C#CC(C)(C)C#N)cccc43)c3c(F)cccc3n12 [compound 163] | 28.4 nM |  | 17.1 nM |

Reference: patent US11976072B2, “Diacylglycerol kinase modulating compounds” (priority 2021, dated 2024)
